In the assay the target is T1, PLK1 (Homo sapiens, UniProt P53350).
T1 construct: Full-length, active GST-PLK1 is purified from Sf9 insect cells; made in house; host or cells: Sf9 insect cells
T1 sequence (P53350 whole entry): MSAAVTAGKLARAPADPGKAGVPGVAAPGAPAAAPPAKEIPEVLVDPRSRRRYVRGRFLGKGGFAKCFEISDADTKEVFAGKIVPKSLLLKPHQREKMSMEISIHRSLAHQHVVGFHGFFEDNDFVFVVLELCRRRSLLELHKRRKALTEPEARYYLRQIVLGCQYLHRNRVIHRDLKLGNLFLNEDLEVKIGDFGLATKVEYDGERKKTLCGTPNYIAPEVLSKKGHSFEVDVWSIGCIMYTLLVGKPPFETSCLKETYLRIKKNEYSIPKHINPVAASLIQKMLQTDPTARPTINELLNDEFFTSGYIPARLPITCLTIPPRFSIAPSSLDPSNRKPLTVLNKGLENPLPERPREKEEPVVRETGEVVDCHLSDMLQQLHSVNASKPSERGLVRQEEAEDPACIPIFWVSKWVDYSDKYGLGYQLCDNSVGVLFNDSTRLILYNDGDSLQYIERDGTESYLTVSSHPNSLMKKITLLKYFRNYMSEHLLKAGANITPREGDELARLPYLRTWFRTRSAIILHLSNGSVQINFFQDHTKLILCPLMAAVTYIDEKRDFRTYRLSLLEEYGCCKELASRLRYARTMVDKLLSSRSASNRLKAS
The assay can be described thus: Biochemical Characterization Assay: HTRF kinase assay, GST-PLK1 phosphorylation of GST-p53. Conditions: GST-PLK1, GST-p53 substrate. The method in brief: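 HTRF read-out of p53 phosphorylation: after EDTA stop, anti-phospho-p53 antibody bound 30 min at 37 °C in HEPES pH 7 buffer, with Eu-anti-rabbit/APC-anti-GST detection. Kinase step used full-length Sf9-expressed GST-PLK1 (3 ug/mL) and E. coli GST-p53 substrate, 35 min at 37 °C.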
Background: TR-FRET usually uses a lanthanide donor and a delayed reading to cut background.
In the case of `CCCN1C(=O)C(F)(F)CN(C2CCCC2)c2nc(Nc3ccc(C(=O)NCCCN(C)C)cc3OC)ncc21` [Example I-166, 4-(9-cyclopentyl-5-propyl-7,7-difluoro-6-oxo-6,7,8,9-tetra-hydro-5H-pyrimido[4,5-b][1,4]diazepin-2-ylamino)-N-(3-dimethylamino-propyl)-3-methoxy-benzamide], the IC50 (usually the midpoint of a concentration-inhibition curve) is 51 to 500 nM.

`CCCN1C(=O)C(F)(F)CN(C2CCCC2)c2nc(Nc3ccc(C(=O)NC4CCOCC4)cc3OC)ncc21` [Example I-167, 4-(9-cyclopentyl-7,7-difluoro-6-oxo-5-propyl-6,7,8,9-tetrahydro-5H-pyrimido[4,5-b][1,4]diazepin-2-ylamino)-3-methoxy-N-(tetrahydro-pyran-4-yl)-benzamide] yielded an IC50 of 500 to 5000 nM.

For `COc1cc(C(N)=O)c(F)cc1Nc1ncc2c(n1)N(C1CCCC1)CC(F)(F)C(=O)N2C` [Example I-170, 4-(9-cyclopentyl-7,7-difluoro-5-methyl-6-oxo-6,7,8,9-tetrahydro-5H-pyrimido[4,5-b][1,4]diazepin-2-ylamino)-2-fluoro-5-methoxy-benzamide], the half-maximal inhibitory concentration (IC50) is 1 to 50 nM.

For `CNC(=O)c1cc(OC)c(Nc2ncc3c(n2)N(C2CCCC2)CC(F)(F)C(=O)N3C)cc1F` [Example I-171, 4-(9-cyclopentyl-7,7-difluoro-5-methyl-6-oxo-6,7,8,9-tetrahydro-5H-pyrimido[4,5-b][1,4]diazepin-2-ylamino)-2-fluoro-5-methoxy-N-methyl-benzamide], the IC50 was in the range of 1 to 50 nM.

The compound `COc1cc(C(=O)NCCCN(C)C)c(F)cc1Nc1ncc2c(n1)N(C1CCCC1)CC(F)(F)C(=O)N2C` [Example I-172, 4-(9-cyclopentyl-7,7-difluoro-5-methyl-6-oxo-6,7,8,9-tetra-hydro-5H-pyrimido[4,5-b][1,4]diazepin-2-ylamino)-N-(3-dimethylamino-propyl)-2-fluoro-5-methoxy-benzamide] registered a concentration for half-maximal inhibition (IC50) of 1 to 50 nM.

For `COc1cc(C(=O)NC2CCOCC2)c(F)cc1Nc1ncc2c(n1)N(C1CCCC1)CC(F)(F)C(=O)N2C` [Example I-173, 4-(9-cyclopentyl-7,7-difluoro-5-methyl-6-oxo-6,7,8,9-tetrahydro-5H-pyrimido[4,5-b][1,4]diazepin-2-ylamino)-2-fluoro-5-methoxy-N-(tetrahydropyran-4-yl)-benzamide], the 50% inhibitory concentration (IC50) was 1 to 50 nM.

`COc1cc(C(=O)NCCN(C)C)c(F)cc1Nc1ncc2c(n1)N(C1CCCC1)CC(F)(F)C(=O)N2C` [Example I-174, 4-(9-cyclopentyl-7,7-difluoro-5-methyl-6-oxo-6,7,8,9-tetra-hydro-5H-pyrimido[4,5-b][1,4]diazepin-2-ylamino)-N-(3-dimethylamino-ethyl)-2-fluoro-5-methoxy-benzamide]: the IC50 lay within 1 to 50 nM.

Turning to `COc1cc(C(=O)NC2CCNCC2)c(F)cc1Nc1ncc2c(n1)N(C1CCCC1)CC(F)(F)C(=O)N2C` [Example I-178, 4-(9-cyclopentyl-7,7-difluoro-5-methyl-6-oxo-6,7,8,9-tetrahydro-5H-pyrimido[4,5-b][1,4]diazepin-2-ylamino)-2-fluoro-5-methoxy-N-piperidin-4-yl-benzamide], the IC50 was in the range of 1 to 50 nM.

In the case of `CN1CCC(NC(=O)c2ccc(Nc3ncc4c(n3)N(C3CCCC3)CC(F)(F)C(=O)N4C)c(Cl)c2)CC1` [Example I-179, 3-chloro-4-(9-cyclopentyl-7,7-difluoro-5-methyl-6-oxo-6,7,8,9-tetrahydro-5H-pyrimido[4,5-b][1,4]diazepin-2-ylamino)-N-(1-methyl-piperidin-4-yl)-benzamide], the IC50 lay in the range of 1 to 50 nM.

`CC(C)Oc1cc(C(=O)NC2CCN(C)CC2)ccc1Nc1ncc2c(n1)N(C1CCCC1)CC(F)(F)C(=O)N2C` [Example I-180, 4-(9-cyclopentyl-7,7-difluoro-5-methyl-6-oxo-6,7,8,9-tetrahydro-5H-pyrimido[4,5-b][1,4]diazepin-2-ylamino)-3-isopropoxy-N-(1-methyl-piperidin-4-yl)-benzamide] displayed an IC50 of 1 to 50 nM.

Compound `CN1CCC(NC(=O)c2ccc(Nc3ncc4c(n3)N(C3CCCC3)CC(F)(F)C(=O)N4C)c(OC(F)(F)F)c2)CC1` [Example I-181, 4-(9-cyclopentyl-7,7-difluoro-5-methyl-6-oxo-6,7,8,9-tetrahydro-5H-pyrimido[4,5-b][1,4]diazepin-2-ylamino)-N-(1-methyl-piperidin-4-yl)-3-trifluoromethoxy-benzamide] gave an IC50 of 1 to 50 nM.

Turning to `CN1CCC(NC(=O)c2ccc(Nc3ncc4c(n3)N(C3CCCC3)CC(F)(F)C(=O)N4C)c(F)c2)CC1` [Example I-183, 4-(9-cyclopentyl-7,7-difluoro-5-methyl-6-oxo-6,7,8,9-tetrahydro-5H-pyrimido[4,5-b][1,4]diazepin-2-ylamino)-3-fluoro-N-(1-methyl-piperidin-4-yl)-benzamide], the IC50 was in the range of 1 to 50 nM.

As for `Cc1cc(C(=O)NC2CCN(C)CC2)ccc1Nc1ncc2c(n1)N(C1CCCC1)CC(F)(F)C(=O)N2C` [Example I-185, 4-(9-cyclopentyl-7,7-difluoro-5-methyl-6-oxo-6,7,8,9-tetrahydro-5H-pyrimido[4,5-b][1,4]diazepin-2-ylamino)-3-methyl-N-(1-methyl-piperidin-4-yl)-benzamide], the half-maximal inhibitory concentration (IC50) fell in the range of 1 to 50 nM.

For the compound `CCN1CCC(NC(=O)c2ccc(Nc3ncc4c(n3)N(C3CCCC3)CC(F)(F)C(=O)N4C)c(C)c2)CC1` [Example I-186, 4-(9-cyclopentyl-7,7-difluoro-5-methyl-6-oxo-6,7,8,9-tetrahydro-5H-pyrimido[4,5-b][1,4]diazepin-2-ylamino)-N-(1-ethyl-piperidin-4-yl)-3-methyl-benzamide], the half-inhibitory concentration (IC50) was 1 to 50 nM.

The compound `Cc1cc(C(=O)NC2CCOCC2)ccc1Nc1ncc2c(n1)N(C1CCCC1)CC(F)(F)C(=O)N2C` [Example I-187, 4-(9-cyclopentyl-7,7-difluoro-5-methyl-6-oxo-6,7,8,9-tetrahydro-5H-pyrimido[4,5-b][1,4]diazepin-2-ylamino)-3-methyl-N-(tetrahydro-pyran-4-yl)-benzamide] returned a 50% inhibitory concentration (IC50) of 1 to 50 nM.

On to `Cc1cc(C(=O)NCCN(C)C)ccc1Nc1ncc2c(n1)N(C1CCCC1)CC(F)(F)C(=O)N2C` [Example I-188, 4-(9-cyclopentyl-7,7-difluoro-5-methyl-6-oxo-6,7,8,9-tetrahydro-5H-pyrimido[4,5-b][1,4]diazepin-2-ylamino)-N-(2-dimethylamino-ethyl)-3-methyl-benzamide], for which the IC50 is 1 to 50 nM.

In turn, `Cc1cc(C(=O)NCCCN(C)C)ccc1Nc1ncc2c(n1)N(C1CCCC1)CC(F)(F)C(=O)N2C` [Example I-189, 4-(9-cyclopentyl-7,7-difluoro-5-methyl-6-oxo-6,7,8,9-tetrahydro-5H-pyrimido[4,5-b][1,4]diazepin-2-ylamino)-N-(3-dimethylamino-propyl)-3-methyl-benzamide] showed an IC50 of 1 to 50 nM.

In the case of `CNC(=O)c1ccc(Nc2ncc3c(n2)N(C2CCCC2)CC(F)(F)C(=O)N3C)c(C)c1` [Example I-190, 4-(9-cyclopentyl-7,7-difluoro-5-methyl-6-oxo-6,7,8,9-tetrahydro-5H-pyrimido[4,5-b][1,4]diazepin-2-ylamino)-3,N-dimethyl-benzamide], the IC50 was in the range of 1 to 50 nM.

`Cc1cc(C(=O)NC2CCN(C(=O)OC(C)(C)C)CC2)ccc1Nc1ncc2c(n1)N(C1CCCC1)CC(F)(F)C(=O)N2C` [Example I-191, 4-[4-(9-cyclopentyl-7,7-difluoro-5-methyl-6-oxo-6,7,8,9-tetrahydro-5H-pyrimido[4,5-b][1,4]diazepin-2-ylamino)-3-methyl-benzoylamino]-piperidine-1-carboxylic acid tert-butyl ester]: the IC50 lay in the range of 1 to 50 nM.

The compound `Cc1cc(C(=O)NC2CCNCC2)ccc1Nc1ncc2c(n1)N(C1CCCC1)CC(F)(F)C(=O)N2C` [Example I-192, 4-(9-cyclopentyl-7,7-difluoro-5-methyl-6-oxo-6,7,8,9-tetrahydro-5H-pyrimido[4,5-b][1,4]diazepin-2-ylamino)-3-methyl-N-piperidin-4-yl-benzamide] came in with a 50% inhibitory concentration (IC50) of 1 to 50 nM.

In turn, `Cc1cc(C(N)=O)ccc1Nc1ncc2c(n1)N(C1CCCC1)CC(F)(F)C(=O)N2C` [Example I-193, 4-(9-cyclopentyl-7,7-difluoro-5-methyl-6-oxo-6,7,8,9-tetrahydro-5H-pyrimido[4,5-b][1,4]diazepin-2-ylamino)-3-methyl-benzamide] came in with a concentration for half-maximal inhibition (IC50) of 1 to 50 nM.

As to `CCc1cc(C(=O)NC2CCN(C)CC2)ccc1Nc1ncc2c(n1)N(C1CCCC1)CC(F)(F)C(=O)N2C` [Example I-195, 4-(9-cyclopentyl-7,7-difluoro-5-methyl-6-oxo-6,7,8,9-tetrahydro-5H-pyrimido[4,5-b][1,4]diazepin-2-ylamino)-3-ethyl-N-(1-methyl-piperidin-4-yl)-benzamide], the IC50 was 1 to 50 nM.

`CCc1cc(C(=O)NC2CCN(CC)CC2)ccc1Nc1ncc2c(n1)N(C1CCCC1)CC(F)(F)C(=O)N2C` [Example I-196, 4-(9-cyclopentyl-7,7-difluoro-5-methyl-6-oxo-6,7,8,9-tetrahydro-5H-pyrimido[4,5-b][1,4]diazepin-2-ylamino)-3-ethyl-N-(1-ethyl-piperidin-4-yl)-benzamide] had a concentration for half-maximal inhibition (IC50) of 1 to 50 nM.

`CCc1cc(C(=O)NC2CCOCC2)ccc1Nc1ncc2c(n1)N(C1CCCC1)CC(F)(F)C(=O)N2C` [Example I-197, 4-(9-cyclopentyl-7,7-difluoro-5-methyl-6-oxo-6,7,8,9-tetrahydro-5H-pyrimido[4,5-b][1,4]diazepin-2-ylamino)-3-ethyl-N-(tetrahydro-pyran-4-yl)-benzamide] registered an IC50 of 1 to 50 nM.

As for `CCc1cc(C(=O)NCCN(C)C)ccc1Nc1ncc2c(n1)N(C1CCCC1)CC(F)(F)C(=O)N2C` [Example I-198, 4-(9-cyclopentyl-7,7-difluoro-5-methyl-6-oxo-6,7,8,9-tetrahydro-5H-pyrimido[4,5-b][1,4]diazepin-2-ylamino)-N-(2-dimethylamino-ethyl)-3-ethyl-benzamide], the IC50 was in the range of 1 to 50 nM.

Values taken from patent US8003785B2 (Takeda Pharmaceutical Company Limited, priority 2008, dated 2011).
